Laboratory results published in patent US20230381142A1, “ANTILEISHMANIAL COMPOUNDS, COMPOSITIONS AND USE THEREOF” (TRUSTEES OF BOSTON UNIVERSITY, priority 2022, published 2023).

system: L. donovani intracellular amastigotes in B10R cells; assay: UCSD L. donovani infection assay (Assay Conditions D); type: cell-based; conditions: B10R cells
Method: (§1) Assay Conditions D: B10R cells (CVCL_0155) were seeded at 300 cells/well, and L. donovani WT promastigotes in stationary phase (7th day after passage) were added at 6,000 parasites/well (ratio of 20 parasites/cell). Both cells and parasites were seeded in DMEM High-Glucose medium (Gibco, cat. no. 11995065) containing 5% Fetal Bovine Serum (Sigma-Aldrich, cat. no. F2442) and 1% Penicillin-Streptomycin (Gibco, cat. no. 15140122). Cells and parasites were incubated in the presence of the compounds for 72 h at 37° C. and 5% C02. Plates were then fixed with 4% formaldehyde solution for at least 1 h, then washed with 1×PBS and stained with 5 μg/mL DAPI. Plates were read using an ImageXpress microscope (Molecular Devices) and analyzed by MetaXpress software (Molecular Devices) using a custom module optimized for this assay. […] Compounds were tested in a 10-point 2-fold serial dilution in 3 technical replicates, and 2 biological replicates. After 72 h, plates were fixed and stained with DAPI as described above. Images were acquired on an ImageXpress microscope, and analyzed using the MetaXpress custom module.
as §1, with “Compounds were obtained as 0.2 μmoles of dried film for primary single point screening. Each compound was diluted in DMSO to 10 μM final testing concentration. These compounds were tested in 2 biological replicates. The compounds were pre-spotted onto 384-well assay plates in single concentration.” for “Assay Conditions D:”, “CO2.” for “C02.”, “module. The DRCs were plotted, half-effective concentration (EC50) and half-cytotoxic concentration (CC50) were calculated using GraphPad Prism Software, version 6.05 (GraphPad Software, San Diego, CA).” for “module.”

Compound | L. donovani amastigotes EC75 (μM, B10R cells)
Cc1ccc(C2c3c(CC(C)C)n[nH]c3C(=O)N2c2ccc3ncnn3c2)cc1 (centres unmarked) [BUCMD00156] | >10 µM
CC(C)Cc1n[nH]c2c1C(C1CCCCC1)N(c1ccc3ncnn3c1)C2=O (centres unmarked) [BUCMD00157] | >10 µM
CC(C)Cc1n[nH]c2c1C(c1cccs1)N(c1ccc3ncnn3c1)C2=O (centres unmarked) [BUCMD00158] | >10 µM
COc1cccc(C2c3c(CC(C)C)n[nH]c3C(=O)N2c2ccc3ncnn3c2)c1 (centres unmarked) [BUCMD00159] | >10 µM
CC(C)Cc1n[nH]c2c1C(c1ccc(F)cc1Br)N(c1ccc3ncnn3c1)C2=O (centres unmarked) [BUCMD00160] | >10 µM
CC(C)Cc1n[nH]c2c1C(c1cc(C(F)(F)F)ccc1Br)N(c1ccc3ncnn3c1)C2=O (centres unmarked) [BUCMD00161] | >10 µM
COc1cc(N2C(=O)c3[nH]nc(CC(C)C)c3C2c2ccc(F)cc2)ccn1 (centres unmarked) [BUCMD00163] | >10 µM
COc1cc(N2C(=O)c3[nH]nc(CC(C)C)c3C2c2ccc(F)cc2)ccc1Br (centres unmarked) [BUCMD00164] | >10 µM
COc1cc(OC)cc(N2C(=O)c3[nH]nc(CC(C)C)c3C2c2ccc(F)cc2)c1 (centres unmarked) [BUCMD00165] | >10 µM
Cc1cccnc1N1C(=O)c2[nH]nc(CC(C)C)c2C1c1ccc(F)cc1 (centres unmarked) [BUCMD00166] | >10 µM
Cc1cc(Br)cnc1N1C(=O)c2[nH]nc(CC(C)C)c2C1c1ccc(F)cc1 (centres unmarked) [BUCMD00167] | >10 µM
Cc1cc(Cl)cnc1N1C(=O)c2[nH]nc(CC(C)C)c2C1c1ccc(F)cc1 (centres unmarked) [BUCMD00168] | >10 µM
Cc1cc(N2C(=O)c3[nH]nc(CC(C)C)c3C2c2ccc(F)cc2)n(C)n1 (centres unmarked) [BUCMD00169] | >10 µM
CC(C)Cc1n[nH]c2c1C(c1ccc(F)cc1)N(c1cc(C3CC3)[nH]n1)C2=O (centres unmarked) [BUCMD00170] | >10 µM
CC(C)Cc1n[nH]c2c1C(c1ccc(F)cc1)N(c1cc(C(C)C)nn1C)C2=O (centres unmarked) [BUCMD00171] | >10 µM
CC(C)Cc1n[nH]c2c1C(c1ccc(F)cc1)N(c1cncc(Br)c1)C2=O (centres unmarked) [BUCMD00172] | >10 µM
Cc1ccnc(N2C(=O)c3[nH]nc(CC(C)C)c3C2c2ccc(F)cc2)c1 (centres unmarked) [BUCMD00173] | >10 µM
Cc1ccc(N2C(=O)c3[nH]nc(CC(C)C)c3C2c2ccc(F)cc2)nc1 (centres unmarked) [BUCMD00174] | >10 µM
Cc1cccc(N2C(=O)c3[nH]nc(CC(C)C)c3C2c2ccc(F)cc2)n1 (centres unmarked) [BUCMD00175] | >10 µM
COc1ccc(N2C(=O)c3[nH]nc(CC(C)C)c3C2c2ccc(Br)cc2OC)cn1 (centres unmarked) [BUCMD00176] | >10 µM

Compound | L. donovani amastigotes EC75 (μM, B10R cells)
COc1ccc(OC)c(N2C(=O)c3[nH]nc(CC(C)C)c3C2c2ccc(OC)nc2)c1 (centres unmarked) [BUCMD00177] | >10 µM
CCc1ccc(C2c3c(CC(C)C)n[nH]c3C(=O)N2c2ccc(F)c(OC)c2)cn1 (centres unmarked) [BUCMD00178] | >10 µM
COc1cc(N2C(=O)c3[nH]nc(CC(C)C)c3C2c2c(C)nn(C)c2Cl)ccc1Br (centres unmarked) [BUCMD00179] | >10 µM
COc1cc(N2C(=O)c3[nH]nc(CC(C)C)c3C2c2c(C)nn(C)c2Cl)ccc1F (centres unmarked) [BUCMD00180] | >10 µM
COc1cc(N2C(=O)c3[nH]nc(CC(C)C)c3C2c2cncc(Br)c2)ccn1 (centres unmarked) [BUCMD00181] | >10 µM
COc1ccc(OC)c(N2C(=O)c3[nH]nc(CC(C)C)c3C2c2cncc(Br)c2)c1 (centres unmarked) [BUCMD00182] | >10 µM
COc1cc(N2C(=O)c3[nH]nc(CC(C)C)c3C2c2cncc(Br)c2)ccc1F (centres unmarked) [BUCMD00183] | >10 µM
COc1cc(OC)cc(N2C(=O)c3[nH]nc(CC(C)C)c3C2c2cncc(Br)c2)c1 (centres unmarked) [BUCMD00184] | >10 µM
COc1cccc(N2C(=O)c3[nH]nc(CC(C)C)c3C2c2cncc(Br)c2)c1 (centres unmarked) [BUCMD00185] | >10 µM
COc1cc(N2C(=O)c3[nH]nc(CC(C)C)c3C2c2ccc(F)cc2C)ccn1 (centres unmarked) [BUCMD00186] | >10 µM
COc1cc(N2C(=O)c3[nH]nc(CC(C)C)c3C2c2cc(Br)ccc2F)ccn1 (centres unmarked) [BUCMD00187] | >10 µM
COc1cc(N2C(=O)c3[nH]nc(CC(C)C)c3C2c2ccc(F)cc2F)ccn1 (centres unmarked) [BUCMD00188] | >10 µM
COc1ncccc1C1c2c(CC(C)C)n[nH]c2C(=O)N1c1ncccc1C (centres unmarked) [BUCMD00189] | >10 µM
COc1ncccc1C1c2c(CC(C)C)n[nH]c2C(=O)N1c1ncc(Br)cc1C (centres unmarked) [BUCMD00190] | >10 µM
COc1ncccc1C1c2c(CC(C)C)n[nH]c2C(=O)N1c1ncc(Cl)cc1C (centres unmarked) [BUCMD00191] | >10 µM
Cc1cc(N2C(=O)c3[nH]nc(CC(C)C)c3C2c2ccc(Br)cc2)n(C)n1 (centres unmarked) [BUCMD00192] | >10 µM
Cc1cc(N2C(=O)c3[nH]nc(CC(C)C)c3C2c2ccc(Cl)cc2)n(C)n1 (centres unmarked) [BUCMD00193] | >10 µM
COc1cc(C2c3c(CC(C)C)n[nH]c3C(=O)N2c2cc(C)nn2C)cc(OC)c1Br (centres unmarked) [BUCMD00194] | >10 µM
COc1cc(C2c3c(CC(C)C)n[nH]c3C(=O)N2c2cc(C3CC3)[nH]n2)cc(OC)c1Br (centres unmarked) [BUCMD00195] | >10 µM
COc1ccc(OC)c(C2c3c(CC(C)C)n[nH]c3C(=O)N2c2cncc(Br)c2)c1 (centres unmarked) [BUCMD00196] | >10 µM

Compound | L. donovani amastigotes EC75 (μM, B10R cells)
COc1ccc(OC)c(C2c3c(CC(C)C)n[nH]c3C(=O)N2c2cc(C)ccn2)c1 (centres unmarked) [BUCMD00197] | >10 µM
COc1ccc(OC)c(C2c3c(CC(C)C)n[nH]c3C(=O)N2c2ccc(C)cn2)c1 (centres unmarked) [BUCMD00198] | >10 µM
COc1ccc(OC)c(C2c3c(CC(C)C)n[nH]c3C(=O)N2c2cccc(C)n2)c1 (centres unmarked) [BUCMD00199] | >10 µM
Cc1ccc(N2C(=O)c3[nH]nc(CC(C)C)c3C2c2ccc(F)cc2Br)cn1 (centres unmarked) [BUCMD00629] | 1.0 µM
Cc1ccc(N2C(=O)c3[nH]nc(CC(C)C)c3C2c2ccc(F)cc2F)cn1 (centres unmarked) [BUCMD00630] | 7.3 µM
Cc1cc(N2C(=O)c3[nH]nc(CC(C)C)c3C2c2ccc(F)cc2Br)ccn1 (centres unmarked) [BUCMD00643] | 1.2 µM
Cc1cc(F)ccc1C1c2c(CC(C)C)n[nH]c2C(=O)N1c1ccn(C)n1 (centres unmarked) [BUCMD00652] | >10 µM
CC(C)Cc1n[nH]c2c1C(c1ccc(Br)cc1F)N(c1ccn(C)n1)C2=O (centres unmarked) [BUCMD00653] | >10 µM
CC(C)Cc1n[nH]c2c1C(c1ccc(F)cc1Cl)N(c1ccn(C)n1)C2=O (centres unmarked) [BUCMD00654] | >10 µM
CC(C)Cc1n[nH]c2c1C(c1ccc(Cl)cc1F)N(c1ccn(C)n1)C2=O (centres unmarked) [BUCMD00655] | >10 µM
CC(C)Cc1n[nH]c2c1C(c1ccccc1Cl)N(c1ccn(C)n1)C2=O (centres unmarked) [BUCMD00656] | >10 µM
Cc1ccccc1C1c2c(CC(C)C)n[nH]c2C(=O)N1c1ccn(C)n1 (centres unmarked) [BUCMD00657] | >10 µM
CC(C)Cc1n[nH]c2c1C(c1ccc(F)cc1Br)N(c1ccn(C)n1)C2=O (centres unmarked) [BUCMD00658] | >10 µM
CC(C)Cc1n[nH]c2c1C(c1ccc(F)cc1F)N(c1ccn(C)n1)C2=O (centres unmarked) [BUCMD00659] | >10 µM
Cc1ccsc1C1c2c(CC(C)C)n[nH]c2C(=O)N1c1ccn(C)n1 (centres unmarked) [BUCMD00660] | >10 µM
CC(C)Cc1n[nH]c2c1C(c1ccccc1C(F)(F)F)N(c1ccn(C)n1)C2=O (centres unmarked) [BUCMD00661] | >10 µM
CC(C)Cc1n[nH]c2c1C(c1sccc1Br)N(c1ccn(C)n1)C2=O (centres unmarked) [BUCMD00662] | >10 µM
CCn1cc(N2C(=O)c3[nH]nc(CC(C)C)c3C2c2ccc(F)cc2C)cn1 (centres unmarked) [BUCMD00663] | 4.0 µM
CCn1cc(N2C(=O)c3[nH]nc(CC(C)C)c3C2c2ccc(Br)cc2F)cn1 (centres unmarked) [BUCMD00664] | >10 µM
